Source: patent US20210254056A1, “IDENTIFICATION AND TARGETED MODULATION OF GENE SIGNALING NETWORKS” (CAMP4 THERAPEUTICS CORPORATION, priority 2017, published 2021)

System: hepatocytes
Assay: RNA-seq of hepatocytes treated with Phase III failure compounds
Conditions: hepatocytes
Protocol: RNA-seq was performed to determine the effects of the compounds on hepatocytes.
Significance was determined by the criteria of FPKM≥0.5, a log 2(fold-change)≥1, and a […].

SMILES: CCC(CC)[C@H](NC(C)=O)[C@@H]1[C@H](O)[C@@H](C(=O)O)C[C@H]1NC(=N)N.O.O.O [peramivir (trihydrate), peramivir]
- RNA-seq results, GPD1 expression (gene GPD1): 0.37
- RNA-seq results: GPD1 expression (gene GPD1): 0
- RNA-seq results, GPHN expression (gene GPHN): −0.14
- RNA-seq results: GPHN expression (gene GPHN): 0.06
- RNA-seq results, GTPBP3 expression (gene GTPBP3): 0.32
- RNA-seq results: GTPBP3 expression (gene GTPBP3): 0.07
- RNA-seq results, GUSB expression (gene GUSB): −0.26
- RNA-seq results: GUSB expression (gene GUSB): 0.23
- RNA-seq results, GYG1 expression (gene GYG1): −0.32
- RNA-seq results: GYG1 expression (gene GYG1): 0.02
- RNA-seq results, GYS1 expression (gene GYS1): 0.05
- RNA-seq results: GYS1 expression (gene GYS1): 0.12
- RNA-seq results, GYS2 expression (gene GYS2): −0.03
- RNA-seq results: GYS2 expression (gene GYS2): −0.13
- RNA-seq results, H6PD expression (gene H6PD): 0.18
- RNA-seq results: H6PD expression (gene H6PD): −0.01
- RNA-seq results, H19 expression (gene H19): −0.21
- RNA-seq results: H19 expression (gene H19): 0.34
- RNA-seq results, HAL expression (gene HAL): −0.09
- RNA-seq results: HAL expression (gene HAL): −0.17
- RNA-seq results, HAX1 expression (gene HAX1): −0.12
- RNA-seq results: HAX1 expression (gene HAX1): 0.15
- RNA-seq results, HBA1 expression (gene HBA1): 1.07
- RNA-seq results: HBA1 expression (gene HBA1): 0.04
- RNA-seq results, HBB expression (gene HBB): 0.07
- RNA-seq results: HBB expression (gene HBB): −0.54
- RNA-seq results, HGD expression (gene HGD): −0.10
- RNA-seq results: HGD expression (gene HGD): −0.18
- RNA-seq results, HLA-B expression (gene HLA-B): 0.05
- RNA-seq results: HLA-B expression (gene HLA-B): 0.18
- RNA-seq results, HMBS expression (gene HMBS): −0.09
- RNA-seq results: HMBS expression (gene HMBS): 0
- RNA-seq results, HMGCR expression (gene HMGCR): −0.11
- RNA-seq results: HMGCR expression (gene HMGCR): −0.29
- RNA-seq results, HMGCS2 expression (gene HMGCS2): −0.21
- RNA-seq results: HMGCS2 expression (gene HMGCS2): −0.28
- RNA-seq results, HMOX1 expression (gene HMOX1): 0.22
- RNA-seq results: HMOX1 expression (gene HMOX1): 1.28
- RNA-seq results, HNF1A expression (gene HNF1A): 0.33
- RNA-seq results: HNF1A expression (gene HNF1A): 0.11
- RNA-seq results, HNF1B expression (gene HNF1B): −0.02
- RNA-seq results: HNF1B expression (gene HNF1B): −0.15
- RNA-seq results, HNF4A expression (gene HNF4A): 0.30
- RNA-seq results: HNF4A expression (gene HNF4A): −0.01
- RNA-seq results, HOGA1 expression (gene HOGA1): 0.80
- RNA-seq results: HOGA1 expression (gene HOGA1): 0.01
- RNA-seq results, HPD expression (gene HPD): 0.10
- RNA-seq results: HPD expression (gene HPD): 0.06
- RNA-seq results, HPGD expression (gene HPGD): −0.69
- RNA-seq results: HPGD expression (gene HPGD): −0.7
- RNA-seq results, HPS4 expression (gene HPS4): −0.04
- RNA-seq results: HPS4 expression (gene HPS4): 0.26
- RNA-seq results, HPS5 expression (gene HPS5): −0.12
- RNA-seq results: HPS5 expression (gene HPS5): −0.18
- RNA-seq results, HPS6 expression (gene HPS6): 0.31
- RNA-seq results: HPS6 expression (gene HPS6): 0.23
- RNA-seq results, HPX expression (gene HPX): −0.17
- RNA-seq results: HPX expression (gene HPX): 0.2
- RNA-seq results, HRAS expression (gene HRAS): −0.15
- RNA-seq results: HRAS expression (gene HRAS): 0.31
- RNA-seq results, HRSP12 expression (gene HRSP12): −0.47
- RNA-seq results: HRSP12 expression (gene HRSP12): −0.3
- RNA-seq results, HSD3B7 expression (gene HSD3B7): −0.05
- RNA-seq results: HSD3B7 expression (gene HSD3B7): 0.26
- RNA-seq results, HSD17B10 expression (gene HSD17B10): −0.09
- RNA-seq results: HSD17B10 expression (gene HSD17B10): 0.15
- RNA-seq results: HYLS1 expression (gene HYLS1): −0.60
- RNA-seq results: ID1 expression (gene ID1): 0.13
- RNA-seq results: IDH1 expression (gene IDH1): −0.29
- RNA-seq results: IDH2 expression (gene IDH2): −0.11
- RNA-seq results: IDUA expression (gene IDUA): 0.23
- RNA-seq results: IFIH1 expression (gene IFIH1): −0.40
- RNA-seq results: IFNAR2 expression (gene IFNAR2): −0.51
- RNA-seq results: IFT27 expression (gene IFT27): −0.11
- RNA-seq results: IFT80 expression (gene IFT80): 0.00
- RNA-seq results: IFT122 expression (gene IFT122): −0.15
- RNA-seq results: IFT140 expression (gene IFT140): 0.44
- RNA-seq results: IFT172 expression (gene IFT172): 0.36
- RNA-seq results: IGFALS expression (gene IGFALS): 0.33
- RNA-seq results: IKBKG expression (gene IKBKG): 0.48
- RNA-seq results: IL1RN expression (gene IL1RN): −0.20
- RNA-seq results: IL2RG expression (gene IL2RG): −0.08
- RNA-seq results: INSR expression (gene INSR): 0.01
- RNA-seq results: INVS expression (gene INVS): −0.15
- RNA-seq results: ISYNA1 expression (gene ISYNA1): 0.20
- RNA-seq results: ITGB3 expression (gene ITGB3): 0.02
- RNA-seq results: IYD expression (gene IYD): −0.15
- RNA-seq results: JAG1 expression (gene JAG1): 0.14
- RNA-seq results: JAK2 expression (gene JAK2): −0.26
- RNA-seq results: KCTD7 expression (gene KCTD7): 0.26
- RNA-seq results: KCTD11 expression (gene KCTD11): 0.53
- RNA-seq results: KHK expression (gene KHK): 0.13
- RNA-seq results: KIAA0586 expression (gene KIAA0586): −0.32
- RNA-seq results: KMT2D expression (gene KMT2D): 0.57
- RNA-seq results: KPTN expression (gene KPTN): 0.03
- RNA-seq results: KRIT1 expression (gene KRIT1): −0.32
- RNA-seq results: KRT18 expression (gene KRT18): 0.14
- RNA-seq results: KYNU expression (gene KYNU): −0.28
- RNA-seq results: LAMB2 expression (gene LAMB2): 0.14
- RNA-seq results: LCAT expression (gene LCAT): 0.18
- RNA-seq results: LDHB expression (gene LDHB): −0.23
- RNA-seq results: LDLR expression (gene LDLR): 0.23
- RNA-seq results: LDLRAP1 expression (gene LDLRAP1): 0.03
- RNA-seq results: LIPC expression (gene LIPC): −0.23
- RNA-seq results: LIPT1 expression (gene LIPT1): −0.63
- RNA-seq results: LMNB2 expression (gene LMNB2): 0.36
- RNA-seq results: LPA expression (gene LPA): 0.04
- RNA-seq results: LPIN1 expression (gene LPIN1): −0.08
- RNA-seq results: LPIN2 expression (gene LPIN2): 0.08
- RNA-seq results: LRBA expression (gene LRBA): −0.14
- RNA-seq results: LRP5 expression (gene LRP5): 0.14
- RNA-seq results: LYRM4 expression (gene LYRM4): −0.40
- RNA-seq results: LYST expression (gene LYST): −0.05
- RNA-seq results: MAN1A1 expression (gene MAN1A1): −0.36
- RNA-seq results: MAN2B1 expression (gene MAN2B1): 0.14
- RNA-seq results: MAOB expression (gene MAOB): −0.07
- RNA-seq results: MAT1A expression (gene MAT1A): 0.14
- RNA-seq results: MBL2 expression (gene MBL2): −0.25
